{"source": "paper PMC4830539", "about": "“Chemical Inhibition of Histone Deacetylases 1 and 2 Induces Fetal Hemoglobin through Activation of GATA2” (PLoS ONE, 2016)", "system": "HBG mRNA", "assay": "HBG induction in GATA2 knockdown BM cells", "assay_type": "cell-based, human", "conditions": "1 μM, 4 days, CS1 expansion media", "protocol": "shRNA experiments were conducted using the RNAi consortium (TRC) TRC1.5 vector, also known as pLKO.1-puro (Sigma). Five vectors containing shRNA targeting GATA2 were screened in expanded BM cells and the two hairpins yielding the greatest knockdown of GATA2 mRNA were selected for further use: shG2-1, TRCN0000019264 and shG2-2, TRCN0000019265. […] Lentiviral supernatants were produced in the 293T cell line using shRNA vectors, viral packaging mix (Sigma, SHP001), and TransIT-293 transfection reagent (Mirus Bio, Madison, WI). BM cells were grown for 3 days in CS1 expansion media, and then transduced using lentiviral supernatant’s supplemented with 5 μg/mL of polybrene under room temperature centrifugation at 1200 x g for 75 minutes. Transduced cells were grown for two days to allow for expression of construct, followed by selection for two days in 1 μg/mL of puromycin. The GATA2 overexpression vector (oeG2) was constructed by removing the GFP cassette of the pLKO.1-puro-CMV-TurboGFP vector (Sigma, SHC003) at the 5' NheI and 3' PstI cloning sites and replacing it with the full-length GATA2 transcript sequence (Refseq NM_001145661) (GenScript, Piscataway, NJ). pLKO.1-puro-CMV-TurboGFP vector was used as a control (oeGFP). BM cells were grown for 3 days in CS1 expansion media, and then transduced using the RetroNectin-bound virus method according to manufacturer’s protocol. […]", "data": [{"smiles": "Nc1ccc(-c2cccs2)cc1NC(=O)c1ccc2nc(N3CCNCC3)ccc2c1", "note": "[ACY-957]", "values": [{"measurement": "reduction of the magnitude of HBG mRNA induction in shG2-1 and shG2-2 cells relative to shCtrl cells", "result": 25, "unit": "%"}]}]}
